What follows are molecules tested against T1, ERα (Homo sapiens, UniProt P03372) (assay: Estrogen receptor degradation activity: breast cancer cell ERα in cell western assay). Settings: MCF7 cells, 4 hours, relative to fulvestrant 0.1 μM positive control.
T1 construct: host or cells: MCF7
T1 sequence (P03372 1-595): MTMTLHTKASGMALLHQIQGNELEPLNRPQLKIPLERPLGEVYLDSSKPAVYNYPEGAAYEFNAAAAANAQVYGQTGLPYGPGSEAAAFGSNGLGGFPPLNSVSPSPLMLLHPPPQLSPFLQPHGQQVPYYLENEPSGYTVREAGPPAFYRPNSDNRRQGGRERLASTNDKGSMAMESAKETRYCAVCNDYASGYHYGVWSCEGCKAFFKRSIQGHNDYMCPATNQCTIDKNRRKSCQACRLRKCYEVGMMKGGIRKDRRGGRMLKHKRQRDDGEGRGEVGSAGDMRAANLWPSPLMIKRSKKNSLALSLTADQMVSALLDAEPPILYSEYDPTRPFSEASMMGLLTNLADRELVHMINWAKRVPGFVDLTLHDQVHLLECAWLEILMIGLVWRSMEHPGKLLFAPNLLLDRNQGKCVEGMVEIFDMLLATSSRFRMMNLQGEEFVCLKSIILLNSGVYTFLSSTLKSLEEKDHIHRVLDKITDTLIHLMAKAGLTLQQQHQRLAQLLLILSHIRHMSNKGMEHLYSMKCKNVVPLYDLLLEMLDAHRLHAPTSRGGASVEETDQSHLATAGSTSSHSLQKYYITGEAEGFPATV
Type: cell-based
Experimental: Test: Estrogen Receptor Degradation Activity Said test involves measuring the in vitro degradation activity of the compounds of the Table 1a. The measurements of the degradation activities were made using a breast cancer cell ERα in cell western assay as described hereunder. MCF7 cells (ATCC) were seeded in 384 wells microplate (collagen coated) at a concentration of 10000 cells/30 μL per well in red phenol free MEM alpha medium (invitrogen) containing 5% charcoal dextran striped FBS. The following day, 9 points serial 1:5 dilution of each compound was added to the cells in 2.5p L at final concentrations ranging from 0.3-0.0000018 μM (in table 2), or 0.1 μM for fulvestrant (using as positive control). At 4 hours post compound addition the cells were fixed by adding 25 μL of formalin (final concentration 5% formalin containing 0.1% triton) for 10 minutes at room temperature and then washed twice with PBS. Then, 50 μL of LI-COR blocking buffer containing 0.1% Triton was added to plate for 30 minutes at room temperature. LI-COR blocking buffer was removed and cells were incubated overnight at cold room with 50 μL anti-ER rabbit monoclonal antibody (Thermo scientific MA1-39540) diluted at 1:1000 in LI-COR blocking buffer containing 0.1% tween-20. Wells which were treated with blocking buffer but no antibody were used as background control. Wells were washed twice with PBS (0.1% tween-20) and incubated at 37° C. for 60 minutes in LI-COR (0.1% tween-20) containing goat anti-rabbit antibody Alexa 488 (1:1000) and Syto-64 a DNA dye (2 μM final concentration). Cells were then washed 3 times in PBS and scanned in ACUMEN explorer (TTP-Labtech). Integrated intensities in the green fluorescence and red fluorescence were measured to determine the levels of ERα and DNA respectively. The degradation activity with respect to estrogen receptors in this test is given by the concentration which degrades 50% of the estrogen receptor (or IC50) in nM. The % of ERα levels decrease were determined as follows: % inhibition=100*(1−(sample−fulvestrant: DMSO−fulvestrant)).

Compound	% Degradation At 0.3 μM [%]
COc1c(C2=C(c3ccc(CC4CN(CCCF)C4)cc3)c3ccc(C(=O)O)cc3CCC2)cccc1C(F)(F)F [Compound 4, 9-(4-((1-(3-fluoropropyl)azetidin-3-yl)methyl)phenyl)-8-(2-methoxy-3-(trifluoromethyl)phenyl)-6,7-dihydro-5H-benzo[7]annulene-3-carboxylic acid]	83
O=C(O)c1ccc2c(c1)CCCC(c1cccc(Cl)c1OC(F)(F)F)=C2c1ccc(CC2CN(CCCF)C2)cc1 [Compound 5, 8-(3-chloro-2-(trifluoromethoxy)phenyl)-9-(4-((1-(3-fluoropropyl)azetidin-3-yl)methyl)phenyl)-6,7-dihydro-5H-benzo[7]annulene-3-carboxylic acid]	87
COc1cccc(C2=C(c3ccc(CC4CN(CCCF)C4)cc3)c3ccc(C(=O)O)cc3CCC2)c1C(F)F [Compound 8, 8-(2-(difluoromethyl)-3-methoxyphenyl)-9-(4-((1-(3-fluoropropyl)azetidin-3-yl)methyl)phenyl)-6,7-dihydro-5H-benzo[7]annulene-3-carboxylic acid]	89
O=C(O)c1ccc2c(c1)CCCC(c1cccc3c1OCCC3)=C2c1ccc(CC2CN(CCCF)C2)cc1 [Compound 9, 8-(chroman-8-yl)-9-(4-((1-(3-fluoropropyl)azetidin-3-yl)methyl)phenyl)-6,7-dihydro-5H-benzo[7]annulene-3-carboxylic acid]	88
COc1cccc(C2=C(c3ccc(CC4CN(CCCF)C4)cc3)c3ccc(C(=O)O)cc3CCC2)c1C(F)(F)F [Compound 11, 9-(4-((1-(3-fluoropropyl)azetidin-3-yl)methyl)phenyl)-8-(3-methoxy-2-(trifluoromethyl)phenyl)-6,7-dihydro-5H-benzo[7]annulene-3-carboxylic acid]	86
O=C(O)c1ccc2c(c1)CCCC(c1cccc3c1CCCO3)=C2c1ccc(CC2CN(CCCF)C2)cc1 [Compound 12, 8-(chroman-5-yl)-9-(4-((1-(3-fluoropropyl)azetidin-3-yl)methyl)phenyl)-6,7-dihydro-5H-benzo[7]annulene-3-carboxylic acid]	86
O=C(O)C(F)(F)F.O=C(O)c1ccc2c(c1)CCCC(CCCO)=C2c1ccc(CC2CN(CCCF)C2)cc1 [Compound 15, 9-(4-((1-(3-fluoropropyl)azetidin-3-yl)methyl)phenyl)-8-(3-hydroxypropyl)-6,7-dihydro-5H-benzo[7]annulene-3-carboxylic acid, 2,2,2-trifluoroacetic acid]	100
COc1cc(C(F)(F)F)ccc1C1=C(c2ccc(CC3CN(CCCF)C3)cc2)c2ccc(C(=O)O)cc2CCC1.Cl [Compound 16, 9-(4-((1-(3-fluoropropyl)azetidin-3-yl)methyl)phenyl)-8-(2-methoxy-4-(trifluoromethyl)phenyl)-6,7-dihydro-5H-benzo[7]annulene-3-carboxylic acid, hydrochloride]	92
COc1ccc(C2=C(c3ccc(CC4CN(CCCF)C4)cc3)c3ccc(C(=O)O)cc3CCC2)cc1C(F)(F)F.Cl [Compound 17, 9-(4-((1-(3-fluoropropyl)azetidin-3-yl)methyl)phenyl)-8-(4-methoxy-3-(trifluoromethyl)phenyl)-6,7-dihydro-5H-benzo[7]annulene-3-carboxylic acid, hydrochloride]	92
COc1cc(C2=C(c3ccc(CC4CN(CCCF)C4)cc3)c3ccc(C(=O)O)cc3CCC2)ccc1C(F)(F)F.Cl [Compound 19, 9-(4-((1-(3-fluoropropyl)azetidin-3-yl)methyl)phenyl)-8-(3-methoxy-4-(trifluoromethyl)phenyl)-6,7-dihydro-5H-benzo[7]annulene-3-carboxylic acid, hydrochloride]	93

Second part, the molecule after the results:

% Degradation At 0.3 μM [%]	Compound
85	O=C(O)c1ccc2c(c1)CCCC(c1cccc(F)c1OC(F)F)=C2c1ccc(CC2CN(CCCF)C2)cc1 [Compound 1, 8-(2-(difluoromethoxy)-3-fluorophenyl)-9-(4-((1-(3-fluoropropyl)azetidin-3-yl)methyl)phenyl)-6,7-dihydro-5H-benzo[7]annulene-3-carboxylic acid]
86	O=C(O)c1ccc2c(c1)CCCC(c1cccc3c1CCCC3)=C2c1ccc(CC2CN(CCCF)C2)cc1 [Compound 2, 9-(4-((1-(3-fluoropropyl)azetidin-3-yl)methyl)phenyl)-8-(5,6,7,8-tetrahydronaphthalen-1-yl)-6,7-dihydro-5H-benzo[7]annulene-3-carboxylic acid]
77	O=C(O)c1ccc2c(c1)CCCC(C1CCC(CO)C1)=C2c1ccc(CC2CN(CCCF)C2)cc1 (stereo not drawn) [Compound 3, 9-(4-((1-(3-fluoropropyl)azetidin-3-yl)methyl)phenyl)-8-(3-(hydroxymethyl)cyclopentyl)-6,7-dihydro-5H-benzo[7]annulene-3-carboxylic acid]
90	Cc1c(OC(F)(F)F)cccc1C1=C(c2ccc(CC3CN(CCCF)C3)cc2)c2ccc(C(=O)O)cc2CCC1 [Compound 6, 9-(4-((1-(3-fluoropropyl)azetidin-3-yl)methyl)phenyl)-8-(2-methyl-3-(trifluoromethoxy)phenyl)-6,7-dihydro-5H-benzo[7]annulene-3-carboxylic acid]
93	COc1cccc(C2=C(c3ccc(CC4CN(CCCF)C4)cc3)c3ccc(C(=O)O)cc3CCC2)c1C [Compound 7, 9-(4-((1-(3-fluoropropyl)azetidin-3-yl)methyl)phenyl)-8-(3-methoxy-2-methylphenyl)-6,7-dihydro-5H-benzo[7]annulene-3-carboxylic acid]
83	CC1(C)CCC(C2=C(c3ncc(CC4CN(CCCF)C4)cc3F)c3ccc(C(=O)O)cc3CCC2)CC1 [Compound 10, 8-(4,4-dimethylcyclohexyl)-9-(3-fluoro-5-((1-(3-fluoropropyl)azetidin-3-yl)methyl)pyridin-2-yl)-6,7-dihydro-5H-benzo[7]annulene-3-carboxylic acid]
64	CC1(C)CCC(C2=C(c3ncc(CC4CN(CCC(F)F)C4)cc3F)c3ccc(C(=O)O)cc3CCC2)CC1 [Compound 13, 9-(5-((1-(3,3-difluoropropyl)azetidin-3-yl)methyl)-3-fluoropyridin-2-yl)-8-(4,4-dimethylcyclohexyl)-6,7-dihydro-5H-benzo[7]annulene-3-carboxylic acid]
93	Cc1c(OC(F)F)cccc1C1=C(c2ccc(CC3CN(CCCF)C3)cc2)c2ccc(C(=O)O)cc2CCC1 [Compound 14, 8-(3-(difluoromethoxy)-2-methylphenyl)-9-(4-((1-(3-fluoropropyl)azetidin-3-yl)methyl)phenyl)-6,7-dihydro-5H-benzo[7]annulene-3-carboxylic acid]
78	Cc1ccc(C(F)(F)F)cc1C1=C(c2ccc(CC3CN(CCCF)C3)cc2)c2ccc(C(=O)O)cc2CCC1 [Compound 18, 9-(4-((1-(3-fluoropropyl)azetidin-3-yl)methyl)phenyl)-8-(2-methyl-5-(trifluoromethyl)phenyl)-6,7-dihydro-5H-benzo[7]annulene-3-carboxylic acid]
91	Cc1ccc(C(F)(F)F)c(C2=C(c3ccc(CC4CN(CCCF)C4)cc3)c3ccc(C(=O)O)cc3CCC2)c1.Cl [Compound 20, 9-(4-((1-(3-fluoropropyl)azetidin-3-yl)methyl)phenyl)-8-(5-methyl-2-(trifluoromethyl)phenyl)-6,7-dihydro-5H-benzo[7]annulene-3-carboxylic acid, hydrochloride]
100	O=C(O)c1ccc2c(c1)CCCC(C1CC(CO)C1)=C2c1ccc(CC2CN(CCCF)C2)cc1 (stereo not drawn) [Compound 21, 9-(4-((1-(3-fluoropropyl)azetidin-3-yl)methyl)phenyl)-8-(3-(hydroxymethyl)cyclobutyl)-6,7-dihydro-5H-benzo[7]annulene-3-carboxylic acid]

Source: patent publication US20250263390A1, “NOVEL SUBSTITUTED 6,7-DIHYDRO-5H-BENZO[7]ANNULENE COMPOUNDS AND THEIR DERIVATIVES, PROCESSES FOR THEIR PREPARATION AND THERAPEUTIC USES THEREOF” (SANOFI, priority 2022, published 2025)
